For one experiment, the system named is RXRα−/−/RARγ−/− F9 cells. Briefly: Proliferation of F9 cells in monolayer culture (cell counting, [3H]thymidine incorporation, cell cycle FACS). Particulars: 1 μM. The class given is cell-based, murine.
Experiment [1] has as its system RARα−/− F9 cells. Kind of experiment: Apoptosis of F9 cells (Hoechst 33258 staining, FACS). The class given is cell-based, murine. To be noted: 1 μM, 6 d. Here is the method: Apoptosis was analyzed by both Hoechst staining of nuclei and FACS® analysis, as previously described (Clifford, J., et al., EMBO J. 15:4142-4155 (1996)).
Experiment [2] relates to RXRα−/− F9 cells. The experiment is described as above. The class given is cell-based, murine. Particulars: 1 μM.
The next experiment has as its system WT F9 cells. Kind of experiment: Proliferation of F9 cells in monolayer culture (cell counting, [3H]thymidine incorporation, cell cycle FACS). The class given is cell-based, murine. To be noted: 1 μM, 5 d. The protocol: Cells were plated in triplicate 3-cm culture wells (5×10^2 cells per well), and cell counting experiments were performed as previously described (Clifford, J., et al., EMBO J. 15:4142-4155 (1996)). [^3H]Thymidine incorporation assays were performed essentially as described (Clifford, J., et al., EMBO J. 15:4142-4155 (1996)), with the following modifications. […] The cell cycle profile of WT and mutant cells was determined as previously described (Clifford, J., et al. EMBO J. 15:4142-4155 (1996)).

In experiment [3] the test system is RXRα−/− F9 cells. The description is as above. In kind it is cell-based, murine. To be noted: 1 μM, 5 d.
The test system of a further experiment is RXRα−/−/RARα−/− F9 cells. Described as above. To be noted: 1 μM, 5 d. The class given is cell-based, murine.
The subject of experiment [4] is RARγ−/− F9 cells. Kind of experiment: Differentiation of F9 cells into primitive and parietal endoderm-like cells in monolayer (morphology, RT-PCR of collagen type IVα1 and laminin B1). To be noted: 1 μM, 48 h. The class given is cell-based, murine. The protocol: (§1) The differentiation patterns of RXRα^−/−/RARα^−/−and RXRα^−/−/RARγ^−/− cells were compared with those of WT and single knockout cell lines.
(§2) F9 cells were cultured and induced to differentiate into primitive, parietal and visceral endoderm-like cells as previously described (Boylan, J., et al., Proc. Natl. Acad. Sci. USA 90:9601-9605 (1993); Clifford, J., et al., EMBO J. 15:4142-4155 (1996)).
(§3) RNA preparation, RT-PCR, and Southern blotting were performed as previously described (Bouillet, P., et al., Dev. Biol. 170:420-433 (1995); Roy, B., et al., Mol. Cell. Biol. 15:6481-6487 (1995)). The PCR primers and end-labeled oligonucleotide probes for collagen IVα1, laminin B1, α-fetoprotein (AFP), and 36B4, were described previously (Clifford, J., et al ., EMBO J. 15:4142-4155 (1996)). Transcript levels were quantified using a BAS 2000 bioimaging analyzer (Fuji Ltd., Tokyo, Japan), and were normalized to the corresponding 36B4 signals.

In experiment [5] the test system is RARα−/− F9 cells. The experiment is described as above. The class given is cell-based, murine. To be noted: 1 μM, 48 h. The protocol:
as §1, §2, §3

Experiment [6] has as its system RARγ−/− F9 cells. Briefly: Morphological differentiation of F9 cell aggregates into visceral endoderm (VE)-like cells (morphology, RT-PCR of markers). The class given is cell-based, murine. Here is the method:
as §2, §3

The test system of a further experiment is D2R promoter. Briefly: D2R promoter CAT reporter assay in transfected COS-1 cells, reporter alone. In kind it is cell-based, rat. To be noted: C1 reporter-transfected COS-1 cells, no receptor vector; 10^−7 M. An excerpt:
Expression Vectors. The C1 reporter construct was obtained by subcloning the HindIII fragment spanning the 5 ′ promoter region of the D2R gene (positions −495 to +273), in the reporter plasmid pBLCAT3 (Luckow, B. & Schütz, G., Nucleic Acids Res. 15:5490 (1987)). The C2 reporter plasmid was constructed by subcloning the SmaI-XhoI fragment (positions −76 to +273) in the same position. The C3 and C4 reporters were generated by cloning a 29 bp synthetic oligonucleotide corresponding, respectively, to the natural rat D2R RARE sequence and the mutated one into pBLCAT2 (Luckow, B. & Schütz, G., Nucleic Acids Res. 15:5490 (1987)). The polylinker in pBLCAT2 is located upstream of the herpes simplex virus 1 (HSV1) thymidine kinase (TK) promoter, from position −105 to +51. To measure transfection efficiency the plasmid pCH110 carrying the β-galactosidase gene (Pharmacia) was used. Mouse […], as well as mouse RXRα, β and γ expression vectors were derived from the parental pSG5 vector (Green, S., et al., Nucleic Acids Res. 16:369 (1988)).
COS-1 cells were used for transient transfection assays. Cells were grown in Dulbecco's modified Eagle's medium supplemented with 5% fetal calf serum.
Several hours before transfection, the medium was replaced with fresh medium containing 5% charcoal-treated FCS. […]

The next experiment concerns the target T1, RARα (Mus musculus, UniProt P11416).
T1 construct: expressed in transfected cells; host or cells: COS-1
T1 sequence (P11416 1-462): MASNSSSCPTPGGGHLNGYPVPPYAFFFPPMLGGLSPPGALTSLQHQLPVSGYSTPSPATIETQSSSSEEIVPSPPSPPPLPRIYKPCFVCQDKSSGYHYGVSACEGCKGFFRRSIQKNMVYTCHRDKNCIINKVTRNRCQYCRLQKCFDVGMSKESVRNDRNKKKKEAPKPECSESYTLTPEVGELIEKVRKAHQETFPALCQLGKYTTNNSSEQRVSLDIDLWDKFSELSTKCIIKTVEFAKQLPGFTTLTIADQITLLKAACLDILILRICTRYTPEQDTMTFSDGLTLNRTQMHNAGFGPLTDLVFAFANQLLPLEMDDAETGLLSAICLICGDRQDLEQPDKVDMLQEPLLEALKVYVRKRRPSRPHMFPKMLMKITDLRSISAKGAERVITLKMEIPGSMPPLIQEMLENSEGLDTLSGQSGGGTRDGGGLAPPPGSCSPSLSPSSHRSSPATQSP
Kind of experiment: D2R promoter CAT reporter assay in COS-1 cells cotransfected with RARα expression vector. The class given is cell-based. Particulars: 0.1 μM.

For the compound `CC1=C(/C=C/C(C)=C/C=C/C(C)=C/C(=O)O)C(C)(C)CCC1` [tRA, all-trans retinoic acid], the “inhibition of [3H]thymidine incorporation” value in the experiment on RXRα−/−/RARγ−/− F9 cells (4 d) is “no inhibition”. Also, the “cell cycle profile (FACS)” value with RXRα−/−/RARγ−/− F9 cells (5 d) is recorded as “not significantly affected”. Further, the “effect on number of cells (cell counting)” value in the experiment on RXRα−/−/RARγ−/− F9 cells (6 d) is given as “did not reduce, but slightly increased”. Besides, the “proportion of apoptotic nuclei and subcellular fragments (Hoechst 33258)” value in the experiment on RARα−/− F9 cells [1] is recorded as “++ (>10%)”; with RXRα−/− F9 cells [2] (6 d), “± (<1%)”. The “sub-2N size DNA-containing particles ('apoptotic bodies'), FACS” value with RXRα−/− F9 cells [2] (after 5 d) is listed as “not detected”. Besides, the “proportion of cells in the G0 and G1 phases (FACS)” value stood at 71% with WT F9 cells, 38% in the experiment with RXRα−/− F9 cells [3] and 40% with RXRα−/−/RARα−/− F9 cells. For the same compound, the “induction of collagen type IVα1 mRNA, lower level compared to WT cells” value in the experiment with RARγ−/− F9 cells [4] was 10 fold. Moreover, the “induction of laminin B1 mRNA, lower level compared to WT cells” value with RARγ−/− F9 cells [4] amounted to 6 fold. The “induction of collagen type IVα1 and laminin B1 mRNA compared to WT cells” value in the experiment on RARα−/− F9 cells [5] is on record as “not altered”. In the experiment on RARγ−/− F9 cells [6] (RARγ−/− aggregates, 50 nM, 10 d), the “induction of AFP mRNA” value is reported as “hardly detectable”. Besides, the “proportion of outer layer of cells displaying VE morphology” value was “± (not more than 10%)” in the experiment on RARγ−/− F9 cells [6] (RARγ−/−, 50 nM, 10 d) and “+++ (more than 80%)” in the experiment with RARγ−/− F9 cells [6] (RARγ−/−, 50 nM, after 14 d of treatment). The “outer layer of cells exhibiting VE conversion” value with RARγ−/− F9 cells [6] (RARγ−/−, 50 nM, after 10 d) is given as less than 10%. Further, the VE differentiation result in the experiment with RARγ−/− F9 cells [6] (RARγ−/−, after 14 d of treatment) is reported as “full VE differentiation was eventually achieved”. Moreover, the “changes in CAT activity” value in the experiment with D2R promoter was “no significant changes”. For the same compound, the figures for the “increase of CAT activity” value at RARα (C1 reporter + RARα expression vector) and at RARα (C2 reporter + RARα expression vector) were 16 fold and 35 fold, respectively.

For the origin of these results see patent US6521814B1, “Use of ligands for treatment of diseases responsive to retinoids” (Institut National de la Santa et de la Recherche Medicale, priority 1997, dated 2003).
